Source: patent US11285103B2, “Degradable hydrogel under physiological conditions” (priority 2015, dated 2022)
Blank lines part the entries; values can stand above or below the compound they belong to. Numbered stars: 1 amine (or outer) side, 2 acyl side, 3 side chain; on linkers, the order of the positions; unused ones are H or OH. Square brackets hold non-standard residues; d marks the D form. Peptide text beside a SMILES is read from it. * marks the point of attachment. Fmoc = O=C(OCC1c2ccccc2-c2ccccc21)*; X1 = NCCc1cc(CN[*:1])ccc1C(=O)[*:2]

Assays:
[1] = Determination of half life in PBS (cleavage of biodegradable linkers from model peptides); format: physicochemical; details: linker X on N terminus of model peptide X-[…]; 1 mg/mL in PBS, 37° C.; read-out: t1/2 (h), cleavage of biodegradable linker (converted)
Experimental: Peptides GIVEQAA-NH2 (SEQ ID NO: 3) and […] (SEQ ID NO: 2), two mimics of the N-terminus section of insulin A chain, were used as model peptides to determine the half lives of various biogradable linkers linked to the N-terminus of the peptides through an amide bond. The model peptides were prepared with Fmoc chemistry, cleaved by TFA and purified by preparative RP-HPLC.
A model peptide capped with a biodegradable linker was dissolved at 1 mg/mL concentration in PBS and the solution was incubated at 37° C. in a water bath. Samples were collected for analysis at different time points (e.g., 8 h, 16 h, 24 h, 48 h, 72 h, 96 h, 120 h). […] The cleavage of a biodegradable linker was quenched by lowering pH to 2 by addition of 0.1% TFA solution. RP-HPLC was used to monitor the cleavage reactions and the cleavage rates were quantitatively studied by measuring the peak areas of model peptides when they are capped with biodegradable linkers and when linkers are released. […]
The rate of cleavage was determined for the model peptides capped with respective biodegradable linkers. The concentrations of the model peptides capped with biodegradable linkers and the released model peptides were determined by their respective peak areas. […] The cleavage half life of a peptide capped with a biodegradable linker was calculated by using the equation and the slope derived from this plot. […]

[2] = Determination of half life in serum (cleavage of biodegradable linkers from model peptide); format: in vitro ADME; details: serum (100%); linker X on N terminus of model peptide X-G-dI-dV-dE-dQ-dA-dA; 100% serum, 37° C.; read-out: t1/2 (h), cleavage of biodegradable linker (converted)
Experimental: Model peptides X-G-dI-dV-dE-dQ-dA-dA (SEQ ID NO:4) capped with various biodegradable linkers were used in the assay. D amino acids were used to prevent other enzymatic cleavage of the model peptides. The peptides were dissolved in 100% serum and incubated at 37° C. Samples were collected for analysis at different time points (e.g., 8 h, 16 h, 24 h, 48 h, 72 h, 96 h, and 120 h).
The rate of cleavage was determined for the model peptides capped with respective biodegradable linkers. The concentrations of the model peptides capped with biodegradable linkers and the released model peptides were determined by their respective peak areas. The first order dissociation rate constant of a model peptide capped with a biodegradable linker was determined by plotting the logarithm of [starting model peptide capped with the biodegradable linker]/[remaining model peptide capped with the biodegradable linker] at various time intervals. The cleavage half life of a peptide capped with a biodegradable linker was calculated by using the equation and the slope derived from this plot.

diabetic rats = test: Blood glucose change in streptozotocin-induced diabetic rats; format: in vivo, Wistar rats; details: 40 nmol/kg daily
Experimental: 9-week-old male Wistar rats, average weight 240±10 g, were housed in polypropylene cages and maintained at constant temperature and humidity on a 12 hour light/dark cycle, and allowed access to food and water ad libitum. When diabetes was induced, rats were fasted for 48 hours and intraperitoneally injected with streptozotocin (60 mg/kg, dissolved in […] sodium citrate buffer, pH 4.5), then food was provided. Blood glucose was checked after three days. Animals with blood glucose above 250 mg/dl was considered diabetic, and the rats with blood glucose higher than 450 mg/dl were used in the experiment. Recombinant insulin (24 nmol/kg) was injected daily to maintain blood glucose no higher than 550 mg/dl.
The insulin hydrogels were prepared according to the methods in Examples 8 and 20, but the hydrogel used in this example was loaded only with insulin. The actual insulin content was calculated with the method in Example 18.
Rats showing hyperglycemia (400-450 mg/dl) were divided into 3 groups, each containing 8 rats. Rats in the first group were intraperitoneally injected saline (100 μL). Rats in the second group were intraperitoneal injected insulin detemir (40 nmol/kg) daily. Rats in the third group were Injected hydrogel (75 nmol/kg, calculated according to the actual amount of human insulin in the hydrogel). […]

half-life at 1 mg/mL [1]: 264 h
Compound: CC1NCc2cc(CN)ccc2C1=O (stereo not drawn)

half-life [2]: 735 h
Compound: CC[C@@H](C)[C@@H](NC(=O)CNC(=O)c1ccc(CNC(=O)OCC2c3ccccc3-c3ccccc32)cc1CCN)C(=O)N[C@@H](C(=O)N[C@H](CCC(=O)O)C(=O)N[C@H](CCC(N)=O)C(=O)N[C@H](C)C(=O)N[C@H](C)C(=O)O)C(C)C (Fmoc-[X1]G[dI][dV][dE][dQ][dA][dA]-OH)

Compound: Insulin detemir
blood glucose lowering (diabetic rats): cannot effectively lower blood glucose
